# In the supplement of paper PMC4862054:
# How the values were obtained:
# Settings in all cases: incubation time: 72 h
# [1] = tested on: CAL-148; test: drug sensitivity score (DSS), CellTox Green (DSS (AUC-based score)); higher = stronger drug effect (viability inhibition or cytotoxicity); extreme values may be limits of the assay
# In short: (§1)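 After 72 h of incubation in 384-well plates with compound at 5 concentrations (10-fold steps, 10,000-fold range set per compound), breast cancer cell lines seeded in 20 µl suspension were read first for CellTox Green fluorescence at 485/520 nm. CellTiter-Glo luminescence was measured next, after 10 min at room temperature. Normalisation on each plate used 0.1 % DMSO and a positive kill control, and the drug sensitivity score was computed from the area under the fitted dose-response curve.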
# [2] = tested on: MDA-MB-453; test: as above
# In short: as §1
# [3] = tested on: HDQ-P1; test: as above
# In short: as §1
# [4] = tested on: BT-474; test: as above
# In short: as §1
# [5] = tested on: HCC1143; test: as above
# In short: as §1
# [6] = tested on: MCF-10A; test: as above
# In short: as §1
# [7] = tested on: HCC1937; test: as above
# In short: as §1
# [8] = tested on: MFM-223; test: as above
# In short: as §1
# [9] = tested on: CAL-51; test: as above
# In short: as §1
# [10] = tested on: Hs578T; test: as above
# In short: as §1
# [11] = tested on: MDA-MB-231; test: as above
# In short: as §1
# [12] = tested on: CAL-85-1; test: as above
# In short: as §1
# [13] = tested on: BT-549; test: as above
# In short: as §1
# [14] = tested on: DU-4475; test: as above
# In short: as §1
# [15] = tested on: HCC1599; test: as above
# In short: as §1
# [16] = tested on: CAL-120; test: as above
# In short: as §1
# [17] = tested on: BT-474; test: normalised viability (% of control), CellTiter-Blue; higher = more viable cells (about 100 = DMSO control)
# In short: (§2)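 Normalised viability is given for a single listed concentration of the series. In 384-well plates, breast cancer cell lines were incubated 72 h with compound, then read with CellTiter-Blue (2 h, 37 °C) at 560/590 nm. Per-plate scaling set vehicle to 100 and a positive kill control to 0, with Z'-factor quality control.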
# [18] = tested on: MDA-MB-436; test: as above
# In short: as §2
# [19] = tested on: HCC1143; test: as above
# In short: as §2
# [20] = tested on: HCC1937; test: as above
# In short: as §2
# [21] = tested on: MFM-223; test: as above
# In short: as §2
# [22] = tested on: CAL-51; test: as above
# In short: as §2
# [23] = tested on: Hs578T; test: as above
# In short: as §2
# [24] = tested on: BT-549; test: as above
# In short: as §2
# [25] = tested on: HCC1599; test: as above
# In short: as §2
structure (smiles),measurement,setting,value
CC(C)(C)c1cc(NC(=O)Nc2ccc(-c3cn4c(n3)sc3cc(OCCN5CCOCC5)ccc34)cc2)no1 [Quizartinib],drug sensitivity score,[1],0
same,drug sensitivity score,[2],0
same,drug sensitivity score,[3],0
same,drug sensitivity score,[4],0
same,drug sensitivity score,[5],0
same,drug sensitivity score,[6],0
same,drug sensitivity score,[7],0
same,drug sensitivity score,[8],0
same,drug sensitivity score,[9],0
same,drug sensitivity score,[10],3.83
same,drug sensitivity score,[11],0
same,drug sensitivity score,[12],0
same,drug sensitivity score,[13],0
same,drug sensitivity score,[14],0
same,drug sensitivity score,[15],0
same,drug sensitivity score,[16],0
same,normalised viability,[17]; 1 nM,95.2%
same,normalised viability,[17]; 100 nM,104%
same,normalised viability,[17]; 1000 nM,96.6%
same,normalised viability,[18]; 1 nM,104%
same,normalised viability,[18]; 100 nM,45.7%
same,normalised viability,[18]; 1000 nM,87.6%
same,normalised viability,[19]; 1 nM,94.3%
same,normalised viability,[19]; 100 nM,95.8%
same,normalised viability,[19]; 1000 nM,94.9%
same,normalised viability,[20]; 1 nM,59.2%
same,normalised viability,[20]; 100 nM,81.8%
same,normalised viability,[20]; 1000 nM,99.8%
same,normalised viability,[21]; 1 nM,86%
same,normalised viability,[21]; 100 nM,86.4%
same,normalised viability,[21]; 1000 nM,83.8%
same,normalised viability,[22]; 0.3 nM,115%
same,normalised viability,[22]; 3 nM,106%
same,normalised viability,[22]; 10 nM,110%
same,normalised viability,[23]; 1 nM,67.6%
same,normalised viability,[23]; 100 nM,119%
same,normalised viability,[23]; 1000 nM,93.2%
same,normalised viability,[24]; 1 nM,89.4%
same,normalised viability,[24]; 100 nM,95.1%
same,normalised viability,[24]; 1000 nM,44%
same,normalised viability,[25]; 1 nM,119%
same,normalised viability,[25]; 100 nM,105%
same,normalised viability,[25]; 1000 nM,63.6%
COc1cc(Nc2ncc(F)c(Nc3ccc4c(n3)NC(=O)C(C)(C)O4)n2)cc(OC)c1OC [Tamatinib],drug sensitivity score,[1],0
same,drug sensitivity score,[2],0
same,drug sensitivity score,[3],0
same,drug sensitivity score,[4],0
same,drug sensitivity score,[5],0
same,drug sensitivity score,[6],0
same,drug sensitivity score,[7],0
same,drug sensitivity score,[8],0
same,drug sensitivity score,[9],1.13
same,drug sensitivity score,[10],0
same,drug sensitivity score,[11],0
same,drug sensitivity score,[12],0
same,drug sensitivity score,[13],0
same,drug sensitivity score,[14],0
same,drug sensitivity score,[15],0
same,drug sensitivity score,[16],0
C[C@@]1(C(=O)Nc2ccc(F)nc2)CCCN1c1nc(Nc2cc(C3CC3)n[nH]2)c2cccn2n1,drug sensitivity score,[1],2.31
same,drug sensitivity score,[2],0
same,drug sensitivity score,[3],4.62
same,drug sensitivity score,[4],0
same,drug sensitivity score,[5],9.05
same,drug sensitivity score,[6],6.69
same,drug sensitivity score,[7],0
same,drug sensitivity score,[8],3.84
same,drug sensitivity score,[9],10.5
same,drug sensitivity score,[10],0
same,drug sensitivity score,[11],6.52
same,drug sensitivity score,[12],0
same,drug sensitivity score,[13],0
same,drug sensitivity score,[14],0
same,drug sensitivity score,[15],0
same,drug sensitivity score,[16],3.17
same,normalised viability,[17]; 10 nM,109%
same,normalised viability,[17]; 1000 nM,87.6%
same,normalised viability,[17]; 10000 nM,82%
same,normalised viability,[18]; 10 nM,122%
same,normalised viability,[18]; 1000 nM,94.3%
same,normalised viability,[18]; 10000 nM,33.9%
same,normalised viability,[19]; 10 nM,105%
same,normalised viability,[19]; 1000 nM,64.1%
same,normalised viability,[19]; 10000 nM,45.6%
same,normalised viability,[20]; 10 nM,127%
same,normalised viability,[20]; 1000 nM,73.2%
same,normalised viability,[20]; 10000 nM,29.4%
same,normalised viability,[21]; 10 nM,88.5%
same,normalised viability,[21]; 1000 nM,52.6%
same,normalised viability,[21]; 10000 nM,25.3%
same,normalised viability,[22]; 3 nM,99%
same,normalised viability,[22]; 30 nM,97.4%
same,normalised viability,[22]; 100 nM,84.9%
same,normalised viability,[23]; 10 nM,114%
same,normalised viability,[23]; 1000 nM,75.8%
same,normalised viability,[23]; 10000 nM,38.1%
same,normalised viability,[24]; 10 nM,97.8%
same,normalised viability,[24]; 1000 nM,77.6%
same,normalised viability,[24]; 10000 nM,34.4%
same,normalised viability,[25]; 10 nM,92.5%
same,normalised viability,[25]; 1000 nM,55%
same,normalised viability,[25]; 10000 nM,54.1%
CCS(=O)(=O)c1cccc(-c2cc(C(=O)NC3CCN(C)CC3)c(C)c3[nH]c4ncc(C)cc4c23)c1 [TAK-901],drug sensitivity score,[1],0
same,drug sensitivity score,[2],0
same,drug sensitivity score,[3],0
same,drug sensitivity score,[4],0
same,drug sensitivity score,[5],0
same,drug sensitivity score,[6],0
same,drug sensitivity score,[7],0
same,drug sensitivity score,[8],0
same,drug sensitivity score,[10],0
same,drug sensitivity score,[11],3.45
same,drug sensitivity score,[12],0
same,drug sensitivity score,[13],0.958
same,drug sensitivity score,[14],0
same,drug sensitivity score,[15],0
same,drug sensitivity score,[16],0
same,normalised viability,[17]; 1 nM,131%
same,normalised viability,[17]; 100 nM,107%
same,normalised viability,[17]; 1000 nM,78.6%
same,normalised viability,[18]; 1 nM,116%
same,normalised viability,[18]; 100 nM,96.1%
same,normalised viability,[18]; 1000 nM,70.6%
same,normalised viability,[19]; 1 nM,87.3%
same,normalised viability,[19]; 100 nM,64.2%
same,normalised viability,[19]; 1000 nM,27.1%
same,normalised viability,[20]; 1 nM,116%
same,normalised viability,[20]; 100 nM,80.7%
same,normalised viability,[20]; 1000 nM,35.2%
same,normalised viability,[21]; 1 nM,96%
same,normalised viability,[21]; 100 nM,55%
same,normalised viability,[21]; 1000 nM,34%
same,normalised viability,[22]; 0.3 nM,98%
same,normalised viability,[22]; 3 nM,92.8%
same,normalised viability,[22]; 10 nM,92.1%
same,normalised viability,[23]; 1 nM,124%
same,normalised viability,[23]; 100 nM,78%
same,normalised viability,[23]; 1000 nM,40.5%
same,normalised viability,[24]; 1 nM,94.6%
same,normalised viability,[24]; 100 nM,71.2%
same,normalised viability,[24]; 1000 nM,20.1%
same,normalised viability,[25]; 1 nM,93.6%
same,normalised viability,[25]; 100 nM,83%
same,normalised viability,[25]; 1000 nM,61.4%
Nc1nccc(-c2c(-c3ccc(F)cc3)ncn2C2CCCCC2)n1,drug sensitivity score,[1],0
same,drug sensitivity score,[2],0
same,drug sensitivity score,[3],0
same,drug sensitivity score,[4],0
same,drug sensitivity score,[5],0
same,drug sensitivity score,[6],3.55
same,drug sensitivity score,[7],0
same,drug sensitivity score,[8],0
same,drug sensitivity score,[9],0
same,drug sensitivity score,[10],0
same,drug sensitivity score,[11],0
same,drug sensitivity score,[12],0
same,drug sensitivity score,[13],0
same,drug sensitivity score,[14],0
same,drug sensitivity score,[15],0
same,drug sensitivity score,[16],0
CN(c1ccccc1CNc1nc(Nc2ccc3c(c2)CC(=O)N3)ncc1C(F)(F)F)S(C)(=O)=O,drug sensitivity score,[1],0
same,drug sensitivity score,[2],0
same,drug sensitivity score,[3],9.69
same,drug sensitivity score,[4],0
same,drug sensitivity score,[5],5.18
same,drug sensitivity score,[6],9.63
same,drug sensitivity score,[7],0
same,drug sensitivity score,[8],0
same,drug sensitivity score,[9],17.6
same,drug sensitivity score,[10],10.4
same,drug sensitivity score,[11],8.46
same,drug sensitivity score,[12],3.86
same,drug sensitivity score,[13],0.974
same,drug sensitivity score,[14],0
same,drug sensitivity score,[15],1.23
same,drug sensitivity score,[16],0
FC(F)c1nc2ccccc2n1-c1nc(N2CCOCC2)nc(N2CCOCC2)n1 [ZSTK474],drug sensitivity score,[1],0
same,drug sensitivity score,[2],0
same,drug sensitivity score,[3],0
same,drug sensitivity score,[4],0.64
same,drug sensitivity score,[5],0
same,drug sensitivity score,[6],0
same,drug sensitivity score,[7],0
same,drug sensitivity score,[8],3.44
same,drug sensitivity score,[9],0
same,drug sensitivity score,[10],0
same,drug sensitivity score,[11],0
same,drug sensitivity score,[12],0
same,drug sensitivity score,[13],0
same,drug sensitivity score,[14],0
same,drug sensitivity score,[15],0
same,drug sensitivity score,[16],0
